The values below are quoted from earlier work in US8636973B2, “Method of producing pharmacologically pure crystals” (Biosyn Arzneimittel GmbH, priority 2010, dated 2014).

For series [1] the following is noted: Janitzki, solubility studies.
For series [2] the following is noted: 14° C.

SMILES strings stand for the structures.

For `O.O.O.O.O.O.O.O.O=[Se]([O-])[O-].[Na+].[Na+]` [Na2SeO3×8 H2O, Na2SeO3×8H2O], the “temperature at which the form is stable / exists” value in series [1] is “up to −8.7 °C”.

Consider `O=[Se]=O` [SeO2, selenium dioxide], for which the solubility in series [2] is recorded as 0.384 kg/l H2O.
